What was measured:
[1] = test system: β-catenin/TCF/LEF transcriptional activity; experiment: TOPFlash assay in NIH/3T3 cells; format: cell-based, mouse; settings: for β-catenin/TCF/LEF transcriptional activity (TOPFlash): Ras^V12-transformed NIH/3T3 cells, 0.5 μM for 12 hours (FIG. 10E)
Method: (§1) Tankyrase inhibitors, JW55, Cardinogenl, and JW67, were purchased from R&D Systems. The cells were treated with the inhibitors at 0.5 μM for 12 hours for TOPFlash assays. For sphere formation assays, the cells were cultured in complete medium with different Tankyrase inhibitors.
Cells were transfected with TOPFlash (Addgene#12456), FOPFlash (Addgene#12457) or pGL3-NFAT (Addgene#17870) luciferase reporter constructs by using Fugene6 (Roche). 48th hour post-transfection the luciferase activities in cell lysates were measured using Bright-Glo Luciferase Assay System (Promega) according to the manufacturer's instructions.

[2] = test system: NIH/3T3 cells; experiment: Sphere formation assay in NIH/3T3 cells; format: cell-based, mouse; settings: for sphere forming efficiency: K-Ras^V12 transformed NIH/3T3 cells (FIG. 10F); for sphere formation: vector control or H-Ras^V12 transformed NIH/3T3 (FIG. 10F)
Method: as §1
Cells were harvested, counted and seeded into Ultra Low Attachment Culture 96-well plate (Corning Life Science, Catalog number 3261) at 10 or 100 cells per well. The seeded cells and formed spheres were maintained in low serum containing medium with 0.1% FBS or CS. The initiated spheres were observed twice and week. The numbers of formed spheres were counted one month after seeding. The spheres were harvested and re-seeded into 12-well or 24-well plate with complete growth medium at one sphere per well. The re-plated colonies were stained and visualized by 0.05% crystal violet staining (in […]).

[3] = test system: CaMKii; experiment: Western blot of phospho-CaMKii in Ras-transformed NIH/3T3 cells (and human pancreatic cancer cell lines); format: cell-based, mouse; settings: NIH/3T3-H-Ras^V12 and vector control cells (FIG. 3B)
Method: (§2) Experimental cells were washed twice in ice-cold PBS and lysed in 1% Triton lysis buffer [25 mmol/L Tris pH 7.5, 150 mmol/L NaCl, 1% Triton X-100, 1 mmol/L EDTA, 1 mmol/L EGTA, 20 mmol/L NaF, 1 mmol/L […], and 1 mmol/L DTT] supplemented with a protease inhibitor cocktail (Roche) and cleared by centrifugation. Protein concentrations were determined by the Bio-Rad Protein Assay (Bio-Rad). Equal amounts of protein extracts were resolved using SDS-PAGE (NuPAGE; Invitrogen), transferred to a nitrocellulose membrane, and immunoblotted with primary antibodies indicated, followed by secondary antibodies labeled with either IRDye800 (Rockland) or Alexa Fluor 680 (Molecular Probes) and were visualized using a LI-COR Odyssey scanner. A complete list of primary antibodies is provided in the Extended Experimental Procedures.

[4] = test system: Fzd8; experiment: Western blot of Fzd8 expression in NIH/3T3 cells; format: cell-based, mouse; settings: NIH/3T3-H-Ras^V12 cells (FIG. 3B)
Method: as §2

[5] = PKC activators, literature; cited from earlier work

Compound	β-catenin/TCF/LEF transcriptional activity (TOPFlash) [1]	sphere forming efficiency [2]	sphere formation [2]	phosphorylation of CaMKii [3]	Fzd8 expression [4]	β-catenin transcriptional activity ([1]; NIH/3T3-H-Ras^V12 cells (FIG. 3C))	sphere forming efficiency and size of spheroid colonies ([2]; NIH/3T3-H-Ras^V12 cells (FIG. 3D))	tumor promotion [5]
COc1ccc(C2(CNC(=O)c3ccc(NC(=O)c4ccco4)cc3)CCOCC2)cc1 [JW55]	successfully repressed β-catenin/TCF/LEF transcriptional activity	still maintained their sphere forming efficiency	inhibited sphere formation					
COc1ccc(S(=O)(=O)N(CCO)c2ccccc2CN(C)C/C=C/c2ccc(Cl)cc2)cc1 [KN-93]				reduced phosphorylation of CaMKii	reduced Fzd8 expression	increased β-catenin transcriptional activity	dramatically enhanced the sphere forming efficiency and the size of spheroid colonies	
c1coc(-c2nnc3sc(C4CCCCC4)nn23)c1 [cardionogen1]	successfully repressed β-catenin/TCF/LEF transcriptional activity	still maintained their sphere forming efficiency	inhibited sphere formation					
CCCCCCCCCCCCCC(=O)O[C@@H]1[C@@H](C)[C@@]2(O)[C@@H](C=C(CO)C[C@]3(O)C(=O)C(C)=C[C@@H]23)[C@@H]2C(C)(C)[C@]12OC(C)=O [PMA, phorbol-12-myristate-13-acetate, reference compound]								tumor promoting
O=C1Nc2ccccc2C12OCC1(CO2)COC2(OC1)C(=O)Nc1ccccc12 (centres unmarked) [JW67]	successfully repressed β-catenin/TCF/LEF transcriptional activity	still maintained their sphere forming efficiency	inhibited sphere formation					

— US10201516B2 (The Regents of the University of California, priority 2014, dated 2019)
